These results are taken from US8222290B2, “Substituted N-phenyl-bipyrrolidine ureas and therapeutic use thereof” (Sanofi, priority 2007, dated 2012).

pKi: −log10 of the molar value. Counter-ions that a name gives are not always drawn.

For this assay, the target named is T1, rhesus H3 receptor (Macaca mulatta, UniProt Q865E1).
T1 construct: rhesus monkey (Macacca Mulatta) 445 amino acid H3 receptor; (Genbank #AY231164); expressed in transfected cells; host or cells: Flp-In T-REx 293 Cell Line (Invitrogen), pcDNA5/FRT/TO, induced with tetracycline; membranes
T1 sequence (Q865E1 1-445): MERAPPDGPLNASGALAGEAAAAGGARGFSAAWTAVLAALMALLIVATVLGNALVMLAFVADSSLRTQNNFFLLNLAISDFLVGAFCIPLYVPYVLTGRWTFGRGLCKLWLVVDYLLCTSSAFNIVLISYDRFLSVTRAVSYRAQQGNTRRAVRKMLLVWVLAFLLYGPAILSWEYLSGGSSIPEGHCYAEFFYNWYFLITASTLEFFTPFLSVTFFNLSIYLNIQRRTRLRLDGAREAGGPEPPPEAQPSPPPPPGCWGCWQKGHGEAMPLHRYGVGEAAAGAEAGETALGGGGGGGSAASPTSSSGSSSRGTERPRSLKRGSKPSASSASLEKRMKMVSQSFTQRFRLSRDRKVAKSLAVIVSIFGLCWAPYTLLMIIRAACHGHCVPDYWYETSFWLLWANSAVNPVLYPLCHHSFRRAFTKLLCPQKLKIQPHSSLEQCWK
Briefly: Rhesus H3 [3H]-Methylhistamine radioligand binding assay (SPA). Also on record: species or system rhesus monkey (Macacca Mulatta). The following applies: [3H]-Methylhistamine 2 nM, rhesus H3 membranes, Cheng-Prusoff. The protocol:
Rhesus H3 membranes were prepared from the Flp-In T-REx 293 Cell Line (Invitrogen) stably transfected with pcDNA5/FRT/TO (Invitrogen) containing the rhesus monkey (Macacca Mulatta) 445 amino acid H3 receptor. (Genbank #AY231164). Stably transfected cultures were amplified in tissue culture flasks by standard tissue culture methods and induced to express rhesus H3 by exposure to 500 ng/ml tetracycline (Cellgro) for 24 hours. After induction, cells were dissociated from flasks utilizing Cell Stripper (Cellgro). Cells were centrifuged (1K×g, 5 min) and pellet frozen in an ethanol-dry ice bath to disrupt cell membranes. Frozen cell pellet was re-suspended in 5 mM HEPES (pH 7.4, Invitrogen) at 10 ml/1000 cm2 of harvested cells. The cell suspension was drawn through an 18 gauge needle (2-3×) followed by a 23 gauge needle (2-3×) to further disrupt cell membranes. The cell suspension was centrifuged (40K×g, 30 min). Cell membrane pellet was re-suspended in 5 mM HEPES (pH 7.4, Invitrogen) at a final protein concentration of 10 mg/ml. Rhesus H3 membranes were stored under liquid nitrogen prior to use in [3H]-Methylhistamine and GTPγS radioligand binding assays.
Rhesus H3 radioligand binding assay was performed using rhesus H3 receptor membranes (prepared as described above), [3H]-Methylhistamine (Perkin Elmer) and WGA SPA beads (wheat germ agglutinin scintillation proximity assay) beads (Amersham). The assay was performed in 96-well Opti-Plates (Packard). Each reaction contained 50 μl rhesus H3 membranes (20-30 μg total protein), 50 μl WGA SPA beads (0.1 μg) and 50 μl of 83Ci/mmol [^3H]-Methylhistamine (final concentration 2 nM) and 50 μl of tested compound. The compounds of this invention and/or vehicle were diluted with binding buffer from 10 mM DMSO stocks. Assay plates were sealed with TopSeal (Perkin Elmer) and mixed on shaker (25° C., 1 hour). Assay plates were read on TopCount scintillation counter (Packard). Results were analyzed by Hill transformation and Ki values were determined by Cheng-Prusoff equation.

Compound `Cc1cc(NC(=O)N2CCCCC2)ccc1N1CCC(N2CCCC2C)C1` (stereo not shown) [Example 24, Piperidine-1-carboxylic acid [3-methyl-4-(2-methyl-[1,3′]bipyrrolidinyl-1′-yl)-phenyl]-amide trifluoroacetate] gave a pKi of 7.54. `CC(=O)N1CCN(C(=O)Nc2ccc(N3CCC(N4CCCC4C)C3)cc2)CC1` (stereo not shown) [Example 13, 4-Acetyl-piperazine-1-carboxylic acid [4-(2-methyl-[1,3′]bipyrrolidinyl-1′-yl)-phenyl]-amide trifluoroacetate] gave a pKi of 7.47. To `CC1CCCN1C1CCN(c2ccc(NC(=O)NC3CCCCC3)cc2)C1` (stereo not shown) [Example 3, 1-Cyclohexyl-3-[4-(2-methyl-[1,3′]bipyrrolidinyl-1′-yl)-phenyl]-urea trifluoroacetate] belongs 8.39; to `CC(=O)N(C)C1CCN(C(=O)Nc2ccc(N3CCC(N4CCCC4C)C3)c(C)c2)C1` (stereo not shown) [Example 2, 3-(Acetyl-methyl-amino)-pyrrolidine-1-carboxylic acid [3-methyl-4-(2-methyl-[1,3′]bipyrrolidinyl-1′-yl)-phenyl]-amide trifluoroacetate], 7.05; to `Cc1cc(NC(=O)N2Cc3ccccc3C2)ccc1N1CCC(N2CCCC2C)C1` (stereo not shown) [Example 21, 1,3-Dihydro-isoindole-2-carboxylic acid [3-methyl-4-(2-methyl-[1,3′]bipyrrolidinyl-1′-yl)-phenyl]-amide trifluoroacetate], 8.10. With `CC1CCCN1C1CCN(c2ccc(NC(=O)Nc3cc(Cl)cc(Cl)c3)cc2)C1` (stereo not shown) [Example 12, 1-(3,5-Dichloro-phenyl)-3-[4-(2-methyl-[1,3′]bipyrrolidinyl-1′-yl)-phenyl]-urea trifluoroacetate] the figure was 7.72; with `CC1CCCN1C1CCN(c2ccc(NC(=O)N3CCCCC3)cc2)C1` (stereo not shown) [Example 1, Piperidine-1-carboxylic acid [4-(2-methyl-[1,3′]bipyrrolidinyl-1′-yl)-phenyl]-amide trifluoroacetate], 8.22; with `CC1CCCN1C1CCN(c2ccc(NC(=O)Nc3cccc(C#N)c3)cc2)C1` (stereo not shown) [Example 7, 1-(3-Cyano-phenyl)-3-[4-(2-methyl-[1,3′]bipyrrolidinyl-1′-yl)-phenyl]-urea trifluoroacetate], 8.11. With `Cc1cc(N2CCC(N3CCCC3C)C2)ccc1NC(=O)Nc1cc(Cl)cc(Cl)c1` (stereo not shown) [Example 15, 1-(3,5-Dichloro-phenyl)-3-[2-methyl-4-(2-methyl-[1,3′]bipyrrolidinyl-1′-yl)-phenyl]-urea trifluoroacetate] the figure was 7.65; with `Cc1cc(NC(=O)Nc2cc(Cl)cc(Cl)c2)ccc1N1CCC(N2CCCC2C)C1` (stereo not shown) [Example 19, 1-(3,5-Dichloro-phenyl)-3-[3-methyl-4-(2-methyl-[1,3′]bipyrrolidinyl-1′-yl)-phenyl]-urea trifluoroacetate], 7.37. In turn, `Cc1cc(NC(=O)NCc2cccs2)ccc1N1CCC(N2CCCC2C)C1` (stereo not shown) [Example 11, 1-[3-Methyl-4-(2-methyl-[1,3′]bipyrrolidinyl-1′-yl)-phenyl]-3-thiophen-2-ylmethyl-urea trifluoroacetate] gave a pKi of 8.08.

In the case of `CC1CCCN1C1CCN(c2ccc(NC(=O)N3CCN(C)CC3)cc2)C1` (stereo not shown) [Example 5, 4-Methyl-piperazine-1-carboxylic acid [4-(2-methyl-[1,3′]bipyrrolidinyl-1′-yl)-phenyl]-amide trifluoroacetate], the negative-log Ki (pKi) is 7.59. To `CC1CCCN1C1CCN(c2ccc(NC(=O)N3Cc4ccccc4C3)cc2)C1` (stereo not shown) [Example 6, 1,3-Dihydro-isoindole-2-carboxylic acid [4-(2-methyl-[1,3′]bipyrrolidinyl-1′-yl)-phenyl]-amide trifluoroacetate] belongs 7.95; to `CC1CCCN1C1CCN(c2ccc(NC(=O)NCc3cc(Cl)cc(Cl)c3)c(C(F)(F)F)c2)C1` (stereo not shown) [Example 25, 1-(3,5-Dichloro-benzyl)-3-[4-(2-methyl-[1,3′]bipyrrolidinyl-1′-yl)-2-trifluoromethyl-phenyl]-urea trifluoroacetate], 7.74. With `Cc1cc(NC(=O)NC2CCCCC2)ccc1N1CCC(N2CCCC2C)C1` (stereo not shown) [Example 10, 1-Cyclohexyl-3-[3-methyl-4-(2-methyl-[1,3′]bipyrrolidinyl-1′-yl)-phenyl]-urea trifluoroacetate] the figure was 7.95; with `Cc1cc(NC(=O)Nc2cccc(C#N)c2)ccc1N1CCC(N2CCCC2C)C1` (stereo not shown) [Example 23, 1-(3-Cyano-phenyl)-3-[3-methyl-4-(2-methyl-[1,3′]bipyrrolidinyl-1′-yl)-phenyl]-urea trifluoroacetate], 8.20. With `CC1CCCN1C1CCN(c2ccc(NC(=O)N3CCN(c4ccccc4)CC3)cc2)C1` (stereo not shown) [Example 4, 4-Phenyl-piperazine-1-carboxylic acid [4-(2-methyl-[1,3′]bipyrrolidinyl-1′-yl)-phenyl]-amide trifluoroacetate] the figure was 7.97; with `CC(=O)N1CCN(C(=O)Nc2ccc(N3CCC(N4CCCC4C)C3)c(C)c2)CC1` (stereo not shown) [Example 22, 4-Acetyl-piperazine-1-carboxylic acid [3-methyl-4-(2-methyl-[1,3′]bipyrrolidinyl-1′-yl)-phenyl]-amide trifluoroacetate], 7.64. Turning to `Cc1cc(N2CCC(N3CCCC3C)C2)ccc1NC(=O)N1CCN(C)CC1` (stereo not shown) [Example 17, 4-Methyl-piperazine-1-carboxylic acid [2-methyl-4-(2-methyl-[1,3′]bipyrrolidinyl-1′-yl)-phenyl]-amide trifluoroacetate], the pKi was 7.98. To `CC1CCCN1C1CCN(c2ccc(NC(=O)NCc3cccs3)cc2)C1` (stereo not shown) [Example 8, 1-[4-(2-Methyl-[1,3′]bipyrrolidinyl-1′-yl)-phenyl]-3-thiophen-2-ylmethyl-urea trifluoroacetate] belongs 8.70; to `Cc1cc(NC(=O)N2CCN(C)CC2)ccc1N1CCC(N2CCCC2C)C1` (stereo not shown) [Example 20, 4-Methyl-piperazine-1-carboxylic acid [3-methyl-4-(2-methyl-[1,3′]bipyrrolidinyl-1′-yl)-phenyl]-amide trifluoroacetate], 7.90; to `Cc1cc(N2CCC(N3CCCC3C)C2)ccc1NC(=O)NC1CCCCC1` (stereo not shown) [Example 16, 1-Cyclohexyl-3-[2-methyl-4-(2-methyl-[1,3′]bipyrrolidinyl-1′-yl)-phenyl]-urea trifluoroacetate], 8.34. To `CC(=O)N(C)C1CCN(C(=O)Nc2ccc(N3CCC(N4CCCC4C)C3)cc2)C1` (stereo not shown) [Example 14, 3-(Acetyl-methyl-amino)-pyrrolidine-1-carboxylic acid [4-(2-methyl-[1,3′]bipyrrolidinyl-1′-yl)-phenyl]-amide trifluoroacetate] belongs 7.45; to `Cc1cc(NC(=O)NCc2cc(Cl)cc(Cl)c2)ccc1N1CCC(N2CCCC2C)C1` (stereo not shown) [Example 9, 1-(3,5-Dichloro-benzyl)-3-[3-methyl-4-(2-methyl-[1,3′]bipyrrolidinyl-1′-yl)-phenyl]-urea trifluoroacetate], 7.54; to `Cc1cc(N2CCC(N3CCCC3C)C2)ccc1NC(=O)N1Cc2ccccc2C1` (stereo not shown) [Example 18, 1,3-Dihydro-isoindole-2-carboxylic acid [2-methyl-4-(2-methyl-[1,3′]bipyrrolidinyl-1′-yl)-phenyl]-amide trifluoroacetate], 7.97.
